Measurements taken from patent US20130039956A1, “USE OF NITROCARBOXYLIC ACIDS FOR THE TREATMENT, DIAGNOSIS AND PROPHYLAXIS OF AGGRESSIVE HEALING PATTERNS” (priority 2010, published 2013).

Columns and labels:
human dermal fibroblasts = assay: Extra cellular matrix production (collagen-1) in response to TGF-β2 in dermal fibroblasts; type: cell-based
Protocol: In order to determine whether PPRA gamma stimulation due to nitrated fatty acids plays a role in the inventive inhibition of an aggressive healing pattern to an irritating stimulus, human dermal fibroblasts were investigated. A dominant-negative PPAR gamma mutant (L466A) cell clone was generated by polymerase chain reaction-based site-directed mutagenesis. Presence of PPAR gamma or absence was investigated using a PPAR gamma antibody reaction which was determined using an enhanced chemiluminescence detection system. Furthermore, one cell series was incubated with a selective irreversible PPAR gamma ligand (GW9662, 1 μmol), which effectively blocks PPAR gamma receptors.
Sequential cultivation of human dermal fibroblasts was performed in EMEM containing 5 mM glucose supplemented with 10% FCS under standard cultivation conditions. Cells were allowed to grow to confluence in a 96-well plate. Wild-type fibroblasts and PPAR gamma deficient fibroblasts were investigated by a set-up of 2×10 sample sets comprising: (1) blank control; (2) stimulation control; (3) preincubation with the PPAR gamma antagonist GW9662 (Cayman Chemical); (4) preincubation with the PPAR agonist troglitazone (25 μmol). In 2×4 sample sets, native fatty acids were added to the medium to achieve a final concentration of 10 and 50 μmol, respectively; in another 2×4 sets the nitrated fatty acids were added to the medium in the same concentration, while 2×2 sets served as controls. In 10 of the sets, TGF-β2 was added to the culture medium at a concentration of 25 ng/ml. Cultivation was continued for 48 hours and then processed in order to analyze collagen-1 as measured by enhanced chemiluminescence detection of immuncomplexes.

fibroblasts = assay: Mechanical alteration of fibroblasts (cyclic stretching of coated polypropylene meshes); type: cell-based; conditions: day 21 to end of follow-up
From the text: In order to simulate the effects of chronic shear forces on a healing wound, an in vitro model was established. A flat balloon was placed on the bottom of a Petri dish. A silicone sheet was placed above and sealed with the side of the Petri dish. Then a 3 mm agar layer was casted on top of the sheet. Commercially available polypropylene meshes for hernia repair (microporous mesh, a low-weight and macroporous mesh with absorbable polyglactin filaments, and a heavy-weight and microporous mesh) were placed on the agar plates and fixed at 4 points at the side of the Petri dish. This setting enabled stretching of the meshes by filling the balloons with air, which was performed at 10-second intervals using an automated pumping device. The model can be used to evaluate the effect of three-dimensional (3D) shear forces on cell growth during cell cultivation. Preincubated suspensions of fibroblasts (1.5×10(5) cells) in a culture medium (10% FCS) were added to the culture dishes and allowed to grow for 48 hours. Cyclic stretching was started at day 3. Histological analysis was performed from the central portions of the meshes at day 7, at day 21, and after 8 weeks. The scaffolds were detached from the culture plate and carefully rinsed. Then, they were cut into pieces, casted, and further processed for standard histology and immunohistology. Care was taken to achieve a cutting plane that was vertical to the surface plane of the meshes. Histological analysis evaluated the cellularity, the content of extra cellular matrix (ECM), and the magnitude of protein synthesis. Meshes were dip-coated with native and nitro fatty acids or left blank in the same manner as in example 1. The uncoated meshes served as controls.

In the case of `Cc1c(C)c2c(c(C)c1O)CCC(C)(COc1ccc(CC3SC(=O)NC3=O)cc1)O2` (stereo not drawn) [PPAR agonist, troglitazone, reference compound], the “reduction of collagen-1 concentrations as compared to the control” value (human dermal fibroblasts; TGF-β2 stimulated, PPAR-positive cells, 25 μmol) is reported as 35-40%.

nitrooleic acid was tested, and the “density of actinmyosin filaments in fibroblasts” value (fibroblasts) was “more actin-myosin fibers (intra-cellular green filaments) than fibroblasts within the coated meshes”.

`O=C(Nc1ccccc1)c1cc([N+](=O)[O-])ccc1Cl` [PPAR gamma antagonist, reference compound] was tested, and the “collagen-1 after TGF-β2 stimulation” value (human dermal fibroblasts; PPAR gamma-positive and -negative cells) was “marked increase of collagen-1”.
